Values belong to the compound of their own block, whether it stands above or below them.
Molecular target: GTPase KRas (Homo sapiens, UniProt P01116, G12V)
Assay: Inhibition of alexa fluor 647-labeled kinase tracer 314 binding to biotinylated-KRAS G12V mutant (unknown origin) measured after 60 mins by HTRF competition binding assay

SMILES: CC(C)C[C@H](NC(=O)[C@H]1CCCc2cnnn2CCCCC(=O)NCC(=O)N2CCC[C@H]2C(=O)N[C@@H](Cc2cccc3ccccc23)C(=O)N1)C(N)=O
IC50 (read-out: IC50): 19 µM

SMILES: CC(C)C[C@H](NC(=O)[C@@H]1COCc2cnnn2CCCCC(=O)NCC(=O)N2CCC[C@H]2C(=O)N[C@@H](Cc2ccc3ccccc3c2)C(=O)N1)C(N)=O
IC50 (read-out: IC50): 9.5 µM

SMILES: CC(C)C[C@H](NC(=O)[C@@H]1COCc2cnnn2CCCCC(=O)NCC(=O)N2CCC[C@H]2C(=O)N[C@H](Cc2ccccc2)C(=O)N1)C(N)=O
IC50 (read-out: IC50): > 82 µM

SMILES: CC(C)C[C@H](NC(=O)[C@@H]1COCc2cnnn2CCCCCC(=O)N2CCC[C@H]2C(=O)N[C@@H](Cc2cccc3ccccc23)C(=O)N1)C(N)=O
IC50 (read-out: IC50): 12 µM

SMILES: NC(=O)CC[C@H](NC(=O)[C@@H]1COCc2cnnn2CCCCC(=O)NCC(=O)N2CCC[C@H]2C(=O)N[C@@H](Cc2cccc3ccccc23)C(=O)N1)C(N)=O
IC50 (read-out: IC50): 50 µM

SMILES: CC(C)C[C@H](NC(=O)[C@H]1Cn2nncc2CCCC(=O)NCC(=O)N2CCC[C@H]2C(=O)N[C@@H](Cc2cccc3ccccc23)C(=O)N1)C(N)=O
IC50 (read-out: IC50): 31 µM

SMILES: CC(C)C[C@H](NC(=O)[C@@H]1COCc2cnnn2CCCCC(=O)N[C@@H](CC(=O)O)C(=O)N2CCC[C@H]2C(=O)N[C@@H](Cc2cccc3ccccc23)C(=O)N1)C(N)=O
IC50 (read-out: IC50): 66 µM

SMILES: CC(C)C[C@H](NC(=O)[C@@H]1COCc2cnnn2CCCCC(=O)NCC(=O)N2Cc3ccccc3C[C@H]2C(=O)N[C@@H](Cc2cccc3ccccc23)C(=O)N1)C(N)=O
IC50 (read-out: IC50): 5.8 µM

IC50 (read-out: IC50): > 89 µM
IC50 (read-out: pIC50 (converted)): > 79.4 µM
SMILES: CC[C@@H](C)[C@@H]1NC(=O)[C@@H]2CCCN2C(=O)[C@H](Cc2ccc(O)cc2)NC(=O)[C@@H](NC(=O)[C@H](CC(=O)O)NC(C)=O)CCCn2nncc2COC[C@@H](C(=O)N[C@@H](CC(C)C)C(=O)N[C@@H](CC(C)C)C(=O)N2CCC[C@H]2C(N)=O)NC1=O

SMILES: CCCC[C@H](NC(=O)[C@@H]1COCc2cnnn2CCCCC(=O)NCC(=O)N2CCC[C@H]2C(=O)N[C@@H](Cc2cccc3ccccc23)C(=O)N1)C(N)=O
IC50 (read-out: IC50): 100 µM

SMILES: CC(C)C[C@H](NC(=O)[C@@H]1COCc2cnnn2CCCCC(=O)NCC(=O)N2CCC[C@H]2C(=O)N[C@@H](Cc2ccccc2)C(=O)N1)C(N)=O
IC50 (read-out: IC50): > 38 µM

SMILES: CC(C)C[C@H](NC(=O)[C@@H]1COCc2cnnn2CCCCC(=O)NCC(=O)N2CCC[C@H]2C(=O)N[C@@H](Cc2cccnc2)C(=O)N1)C(N)=O
IC50 (read-out: IC50): 41 µM

SMILES: CC(C)C[C@H](NC(=O)[C@@H]1COCc2cnnn2CCCCC(=O)NCC(=O)N2CC[C@@H](O)[C@H]2C(=O)N[C@@H](Cc2cccc3ccccc23)C(=O)N1)C(N)=O
IC50 (read-out: IC50): 70 µM

SMILES: CC(C)C[C@H](NC(=O)[C@@H]1COCc2cnnn2CCCCC(=O)N2CCC[C@H]2C(=O)N[C@@H](Cc2cccc3ccccc23)C(=O)N1)C(N)=O
IC50 (read-out: IC50): 48 µM

SMILES: CC(C)C[C@H](NC(=O)[C@@H]1COCc2cnnn2CCCCC(=O)NCC(=O)N2CCC[C@H]2C(=O)N[C@@H](Cc2c[nH]c3ccccc23)C(=O)N1)C(N)=O
IC50 (read-out: IC50): 18 µM

SMILES: CC(C)C[C@H](NC(=O)[C@H]1COCc2cnnn2CCCCC(=O)NCC(=O)N2CCC[C@H]2C(=O)N[C@@H](Cc2cccc3ccccc23)C(=O)N1)C(=O)N[C@@H](C)C(=O)N1CCC[C@H]1C(N)=O
IC50 (read-out: IC50): 46 µM

SMILES: CC(C)C[C@H](NC(=O)[C@@H]1COCc2cnnn2CCCCC(=O)NCC(=O)N2CC[C@H]2C(=O)N[C@@H](Cc2cccc3ccccc23)C(=O)N1)C(N)=O
IC50 (read-out: IC50): 32 µM

SMILES: NC(=O)C[C@H](NC(=O)[C@@H]1COCc2cnnn2CCCCC(=O)NCC(=O)N2CCC[C@H]2C(=O)N[C@@H](Cc2cccc3ccccc23)C(=O)N1)C(N)=O
IC50 (read-out: IC50): 48 µM

SMILES: CC(C)C[C@H](NC(=O)[C@@H]1COCc2cnnn2CCCCCCCCCC(=O)N2CCC[C@H]2C(=O)N[C@@H](Cc2cccc3ccccc23)C(=O)N1)C(N)=O
IC50 (read-out: IC50): 28 µM

SMILES: CC(C)C[C@H](CC(=O)[C@@H]1COCc2cnnn2CCCCC(=O)NCC(=O)N2CCC[C@H]2C(=O)C[C@@H](C)C(=O)C1)C(N)=O
IC50 (read-out: IC50): 91 µM

SMILES: CC(C)C[C@H](NC(=O)[C@@H]1COCc2cnnn2CCCCC(=O)NCC(=O)N2CCC[C@H]2C(=O)N[C@@H](c2ccccc2)C(=O)N1)C(N)=O
IC50 (read-out: IC50): > 100 µM

SMILES: CC(=O)N[C@@H](CC(=O)O)C(=O)N[C@H]1CCCn2nncc2COC[C@H](C(=O)N[C@@H](CC(C)C)C(N)=O)NC(=O)[C@H](Cc2cccc3ccccc23)NC(=O)[C@@H]2CCCN2C(=O)CNC1=O
IC50 (read-out: IC50): 38 µM

SMILES: CC(C)C[C@@H](C(N)=O)N(C)C(=O)[C@@H]1COCc2cnnn2CCCCC(=O)NCC(=O)N2CCC[C@H]2C(=O)N[C@@H](Cc2cccc3ccccc23)C(=O)N1
IC50 (read-out: IC50): 26 µM

SMILES: CC(C)C[C@H](NC(=O)[C@@H]1COCc2cnnn2CCCCC(=O)NCC(=O)N2CCCCC[C@H]2C(=O)N[C@@H](Cc2cccc3ccccc23)C(=O)N1)C(N)=O
IC50 (read-out: IC50): 55 µM

SMILES: CC(C)C[C@H](NC(=O)[C@@H]1COCc2cnnn2CCCCC(=O)NCC(=O)N2CCC[C@H]2C(=O)N[C@@H](CC2CC2)C(=O)N1)C(N)=O
IC50 (read-out: IC50): 32 µM

SMILES: CC(C)C[C@H](NC(=O)[C@H]1CCn2nncc2CCCC(=O)NCC(=O)N2CCC[C@H]2C(=O)N[C@@H](Cc2cccc3ccccc23)C(=O)N1)C(N)=O
IC50 (read-out: IC50): 13 µM

Reference: ChEMBL document CHEMBL5055671, “Targeting a Novel KRAS Binding Site: Application of One-Component Stapling of Small (5-6-mer) Peptides” (J Med Chem, 2021)
